In the test the target is Mpg (Neisseria gonorrhoeae, UniProt Q5F676). Description: fluorescence thermal shift (Sypro-Orange). The format is binding. Particulars: read-out: dTm at 5 μM.
Sequence of Mpg (Q5F676 31-430): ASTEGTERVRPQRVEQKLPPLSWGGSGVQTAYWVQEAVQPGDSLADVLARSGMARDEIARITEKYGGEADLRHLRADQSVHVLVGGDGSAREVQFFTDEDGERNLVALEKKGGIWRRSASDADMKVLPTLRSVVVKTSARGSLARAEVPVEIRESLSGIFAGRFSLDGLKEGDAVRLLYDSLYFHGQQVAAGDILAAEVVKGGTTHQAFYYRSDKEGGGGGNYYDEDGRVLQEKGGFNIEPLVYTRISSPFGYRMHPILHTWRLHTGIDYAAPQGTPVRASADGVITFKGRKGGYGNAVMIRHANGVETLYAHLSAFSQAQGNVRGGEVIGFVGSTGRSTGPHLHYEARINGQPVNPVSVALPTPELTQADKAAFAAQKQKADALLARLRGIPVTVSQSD

In the case of `O=C(O)C[C@@H]1C(=O)O[C@H]2[C@H](OC(=O)c3cc(O)c(O)c(O)c3)[C@@H](OC(=O)c3cc(O)c(O)c4c3[C@H]1[C@@H](O)C(=O)O4)[C@H](OC(=O)c1cc(O)c(O)c(O)c1)O[C@@H]2COC(=O)c1cc(O)c(O)c(O)c1` [chebulinic acid], the ΔTm at 5 µM is -2.9 °C. To `O=C1O[C@H]2[C@@H]3OC(=O)c4cc(O)c(O)c(O)c4-c4c(O)c(O)c5oc(=O)c6c(c(O)c(O)c7oc(=O)c4c5c76)-c4c(cc(O)c(O)c4O)C(=O)OC[C@H]3OC(O)[C@@H]2OC(=O)c2cc(O)c(O)c(O)c2-c2c1cc(O)c(O)c2O` (mixture of isomers) [punicalagin] belongs -4.4 °C.

Source of the values: publication PMC11980366, “Natural compounds target the M23B zinc metallopeptidase Mpg to modulate Neisseria gonorrhoeae Type IV pilus expression” (mBio, 2025).
